Usually AC50 stands for the concentration giving half of the maximal activity seen.

Test [1] concerns the target T1, Cholecystokinin receptor type A (Homo sapiens, UniProt P32238).
T1 sequence (P32238 whole entry): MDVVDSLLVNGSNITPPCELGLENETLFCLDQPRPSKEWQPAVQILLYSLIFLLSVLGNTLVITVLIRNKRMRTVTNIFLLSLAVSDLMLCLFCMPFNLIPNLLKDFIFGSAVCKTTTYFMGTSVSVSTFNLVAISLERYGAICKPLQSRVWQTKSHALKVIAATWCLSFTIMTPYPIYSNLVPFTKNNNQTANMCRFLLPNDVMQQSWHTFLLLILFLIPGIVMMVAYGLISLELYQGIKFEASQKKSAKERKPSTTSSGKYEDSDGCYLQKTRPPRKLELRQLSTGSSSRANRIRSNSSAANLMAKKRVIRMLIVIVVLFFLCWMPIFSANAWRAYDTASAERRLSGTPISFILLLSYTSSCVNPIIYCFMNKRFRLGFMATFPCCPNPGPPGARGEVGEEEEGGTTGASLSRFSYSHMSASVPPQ

Test [2] deals with Neuronal acetylcholine receptor subunit alpha-4 (Homo sapiens, UniProt P43681).
Another test deals with Cannabinoid receptor 1 (Homo sapiens, UniProt P21554). The class given is functional, cell-based.
In test [3] the target is Muscarinic acetylcholine receptor M3 (Homo sapiens, UniProt P20309).
Test [4] has as its target T2, 5-hydroxytryptamine receptor 2C (Homo sapiens, UniProt P28335).
T2 sequence (P28335 whole entry): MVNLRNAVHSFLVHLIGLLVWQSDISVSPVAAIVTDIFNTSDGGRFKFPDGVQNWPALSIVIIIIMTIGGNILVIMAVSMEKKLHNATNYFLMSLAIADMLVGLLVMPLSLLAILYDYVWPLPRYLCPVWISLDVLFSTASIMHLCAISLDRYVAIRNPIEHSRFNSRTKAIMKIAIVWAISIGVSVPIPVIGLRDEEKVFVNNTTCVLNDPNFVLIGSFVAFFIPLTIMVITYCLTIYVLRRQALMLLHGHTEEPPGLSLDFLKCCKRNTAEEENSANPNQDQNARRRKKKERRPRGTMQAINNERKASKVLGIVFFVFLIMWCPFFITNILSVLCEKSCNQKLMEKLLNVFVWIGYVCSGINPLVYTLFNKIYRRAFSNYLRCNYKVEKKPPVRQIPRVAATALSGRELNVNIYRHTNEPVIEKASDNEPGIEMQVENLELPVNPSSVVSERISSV

In test [5] the target is Beta-1 adrenergic receptor (Homo sapiens, UniProt P08588). Type of test: functional.
Test [6] addresses Sodium-dependent dopamine transporter (Homo sapiens, UniProt Q01959).
Test [7] concerns the target Voltage-dependent L-type calcium channel subunit alpha-1C (Rattus norvegicus, UniProt P22002). The class given is functional.
Test [8] addresses T3, Amine oxidase [flavin-containing] A (Homo sapiens, UniProt P21397).
T3 sequence (P21397 whole entry): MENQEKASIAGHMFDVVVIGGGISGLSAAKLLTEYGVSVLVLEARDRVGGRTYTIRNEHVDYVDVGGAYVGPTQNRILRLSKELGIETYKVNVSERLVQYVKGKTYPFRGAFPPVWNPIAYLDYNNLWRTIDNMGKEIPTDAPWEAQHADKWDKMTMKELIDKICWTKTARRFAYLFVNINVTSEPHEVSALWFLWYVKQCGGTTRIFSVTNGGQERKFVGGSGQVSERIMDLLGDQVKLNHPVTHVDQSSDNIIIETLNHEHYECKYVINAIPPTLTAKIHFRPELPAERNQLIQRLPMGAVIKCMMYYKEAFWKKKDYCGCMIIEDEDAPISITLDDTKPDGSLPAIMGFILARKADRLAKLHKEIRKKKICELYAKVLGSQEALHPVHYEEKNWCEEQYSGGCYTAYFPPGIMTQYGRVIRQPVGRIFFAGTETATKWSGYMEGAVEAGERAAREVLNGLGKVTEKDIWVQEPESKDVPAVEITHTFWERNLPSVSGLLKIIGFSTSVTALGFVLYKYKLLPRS
The class given is functional.

The target of a further test is T4, Endothelin-1 receptor (Homo sapiens, UniProt P25101).
T4 sequence (P25101 whole entry): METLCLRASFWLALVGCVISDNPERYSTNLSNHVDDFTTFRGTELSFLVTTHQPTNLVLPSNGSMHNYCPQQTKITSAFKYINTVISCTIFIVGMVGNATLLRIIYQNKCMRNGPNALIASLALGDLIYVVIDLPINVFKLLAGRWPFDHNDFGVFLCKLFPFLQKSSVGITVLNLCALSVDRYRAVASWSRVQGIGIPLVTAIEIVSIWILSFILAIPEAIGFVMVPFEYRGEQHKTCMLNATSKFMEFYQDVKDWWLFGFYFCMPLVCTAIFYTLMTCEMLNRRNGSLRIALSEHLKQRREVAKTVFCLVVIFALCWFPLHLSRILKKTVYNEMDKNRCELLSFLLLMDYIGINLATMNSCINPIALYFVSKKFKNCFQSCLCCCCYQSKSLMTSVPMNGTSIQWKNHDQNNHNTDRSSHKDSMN
Note: assay procedure not described here.

Chain of Muscarinic acetylcholine receptor M3 (P20309 whole entry): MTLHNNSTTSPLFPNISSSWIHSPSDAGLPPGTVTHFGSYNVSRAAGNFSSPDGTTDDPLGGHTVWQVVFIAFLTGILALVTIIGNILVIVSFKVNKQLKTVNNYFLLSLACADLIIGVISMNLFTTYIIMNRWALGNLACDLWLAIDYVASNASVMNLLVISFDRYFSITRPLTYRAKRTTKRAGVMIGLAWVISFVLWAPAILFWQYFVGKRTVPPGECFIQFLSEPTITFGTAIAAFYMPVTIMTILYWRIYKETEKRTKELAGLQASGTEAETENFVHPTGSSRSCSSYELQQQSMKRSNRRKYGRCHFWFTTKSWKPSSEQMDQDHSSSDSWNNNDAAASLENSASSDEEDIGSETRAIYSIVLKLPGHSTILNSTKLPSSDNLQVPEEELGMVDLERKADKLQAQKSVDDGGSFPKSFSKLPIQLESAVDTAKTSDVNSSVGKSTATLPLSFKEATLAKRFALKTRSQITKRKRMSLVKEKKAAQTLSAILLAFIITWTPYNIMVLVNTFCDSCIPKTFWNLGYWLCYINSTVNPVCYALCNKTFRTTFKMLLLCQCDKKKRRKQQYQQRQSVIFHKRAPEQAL
Chain of Beta-1 adrenergic receptor (P08588 whole entry): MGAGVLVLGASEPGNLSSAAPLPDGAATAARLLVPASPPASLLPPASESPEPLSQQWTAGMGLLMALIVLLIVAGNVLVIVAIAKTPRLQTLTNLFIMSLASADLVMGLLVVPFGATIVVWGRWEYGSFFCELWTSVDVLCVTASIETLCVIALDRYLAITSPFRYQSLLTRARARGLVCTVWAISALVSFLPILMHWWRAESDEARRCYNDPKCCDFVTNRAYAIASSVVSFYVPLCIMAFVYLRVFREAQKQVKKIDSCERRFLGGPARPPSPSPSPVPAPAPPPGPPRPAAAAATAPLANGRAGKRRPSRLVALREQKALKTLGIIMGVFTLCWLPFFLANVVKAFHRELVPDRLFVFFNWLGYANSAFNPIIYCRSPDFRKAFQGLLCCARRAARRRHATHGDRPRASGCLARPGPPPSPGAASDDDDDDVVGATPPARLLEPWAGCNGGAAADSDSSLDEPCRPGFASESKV
Chain of Neuronal acetylcholine receptor subunit alpha-4 (P43681 whole entry): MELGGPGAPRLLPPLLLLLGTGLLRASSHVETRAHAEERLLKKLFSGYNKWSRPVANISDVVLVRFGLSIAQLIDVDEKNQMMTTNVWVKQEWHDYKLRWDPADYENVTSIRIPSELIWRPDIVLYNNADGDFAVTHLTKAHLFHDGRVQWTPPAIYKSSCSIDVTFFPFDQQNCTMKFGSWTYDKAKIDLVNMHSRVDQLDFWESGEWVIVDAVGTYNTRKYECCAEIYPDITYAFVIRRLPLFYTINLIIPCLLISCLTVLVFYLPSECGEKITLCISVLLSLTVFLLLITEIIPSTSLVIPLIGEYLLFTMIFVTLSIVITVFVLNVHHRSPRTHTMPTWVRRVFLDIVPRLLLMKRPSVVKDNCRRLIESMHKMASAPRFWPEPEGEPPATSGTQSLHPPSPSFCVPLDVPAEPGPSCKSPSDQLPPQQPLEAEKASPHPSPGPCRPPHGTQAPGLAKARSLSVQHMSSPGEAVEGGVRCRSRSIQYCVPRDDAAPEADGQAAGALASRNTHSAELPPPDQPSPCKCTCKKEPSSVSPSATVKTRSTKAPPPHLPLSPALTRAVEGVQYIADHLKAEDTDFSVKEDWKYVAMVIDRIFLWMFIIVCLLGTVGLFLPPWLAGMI
Chain of Sodium-dependent dopamine transporter (Q01959 whole entry): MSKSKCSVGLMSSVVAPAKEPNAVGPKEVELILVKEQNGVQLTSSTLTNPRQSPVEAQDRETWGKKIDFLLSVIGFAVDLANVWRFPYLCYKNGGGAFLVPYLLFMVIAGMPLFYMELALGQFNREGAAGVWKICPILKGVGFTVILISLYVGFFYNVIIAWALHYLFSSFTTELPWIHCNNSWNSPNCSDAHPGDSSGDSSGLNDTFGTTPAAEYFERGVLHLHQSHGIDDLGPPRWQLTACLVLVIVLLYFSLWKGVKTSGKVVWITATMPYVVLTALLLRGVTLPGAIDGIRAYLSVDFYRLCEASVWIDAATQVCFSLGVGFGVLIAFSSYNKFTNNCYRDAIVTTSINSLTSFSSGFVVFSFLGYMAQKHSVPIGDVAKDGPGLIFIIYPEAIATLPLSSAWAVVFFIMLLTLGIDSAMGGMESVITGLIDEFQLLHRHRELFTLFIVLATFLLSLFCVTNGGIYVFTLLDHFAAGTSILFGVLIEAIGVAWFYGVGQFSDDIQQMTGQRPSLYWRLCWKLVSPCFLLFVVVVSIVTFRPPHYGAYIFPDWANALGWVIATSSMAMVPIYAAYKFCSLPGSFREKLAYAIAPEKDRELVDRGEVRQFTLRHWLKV
Chain of Voltage-dependent L-type calcium channel subunit alpha-1C (P22002 whole entry): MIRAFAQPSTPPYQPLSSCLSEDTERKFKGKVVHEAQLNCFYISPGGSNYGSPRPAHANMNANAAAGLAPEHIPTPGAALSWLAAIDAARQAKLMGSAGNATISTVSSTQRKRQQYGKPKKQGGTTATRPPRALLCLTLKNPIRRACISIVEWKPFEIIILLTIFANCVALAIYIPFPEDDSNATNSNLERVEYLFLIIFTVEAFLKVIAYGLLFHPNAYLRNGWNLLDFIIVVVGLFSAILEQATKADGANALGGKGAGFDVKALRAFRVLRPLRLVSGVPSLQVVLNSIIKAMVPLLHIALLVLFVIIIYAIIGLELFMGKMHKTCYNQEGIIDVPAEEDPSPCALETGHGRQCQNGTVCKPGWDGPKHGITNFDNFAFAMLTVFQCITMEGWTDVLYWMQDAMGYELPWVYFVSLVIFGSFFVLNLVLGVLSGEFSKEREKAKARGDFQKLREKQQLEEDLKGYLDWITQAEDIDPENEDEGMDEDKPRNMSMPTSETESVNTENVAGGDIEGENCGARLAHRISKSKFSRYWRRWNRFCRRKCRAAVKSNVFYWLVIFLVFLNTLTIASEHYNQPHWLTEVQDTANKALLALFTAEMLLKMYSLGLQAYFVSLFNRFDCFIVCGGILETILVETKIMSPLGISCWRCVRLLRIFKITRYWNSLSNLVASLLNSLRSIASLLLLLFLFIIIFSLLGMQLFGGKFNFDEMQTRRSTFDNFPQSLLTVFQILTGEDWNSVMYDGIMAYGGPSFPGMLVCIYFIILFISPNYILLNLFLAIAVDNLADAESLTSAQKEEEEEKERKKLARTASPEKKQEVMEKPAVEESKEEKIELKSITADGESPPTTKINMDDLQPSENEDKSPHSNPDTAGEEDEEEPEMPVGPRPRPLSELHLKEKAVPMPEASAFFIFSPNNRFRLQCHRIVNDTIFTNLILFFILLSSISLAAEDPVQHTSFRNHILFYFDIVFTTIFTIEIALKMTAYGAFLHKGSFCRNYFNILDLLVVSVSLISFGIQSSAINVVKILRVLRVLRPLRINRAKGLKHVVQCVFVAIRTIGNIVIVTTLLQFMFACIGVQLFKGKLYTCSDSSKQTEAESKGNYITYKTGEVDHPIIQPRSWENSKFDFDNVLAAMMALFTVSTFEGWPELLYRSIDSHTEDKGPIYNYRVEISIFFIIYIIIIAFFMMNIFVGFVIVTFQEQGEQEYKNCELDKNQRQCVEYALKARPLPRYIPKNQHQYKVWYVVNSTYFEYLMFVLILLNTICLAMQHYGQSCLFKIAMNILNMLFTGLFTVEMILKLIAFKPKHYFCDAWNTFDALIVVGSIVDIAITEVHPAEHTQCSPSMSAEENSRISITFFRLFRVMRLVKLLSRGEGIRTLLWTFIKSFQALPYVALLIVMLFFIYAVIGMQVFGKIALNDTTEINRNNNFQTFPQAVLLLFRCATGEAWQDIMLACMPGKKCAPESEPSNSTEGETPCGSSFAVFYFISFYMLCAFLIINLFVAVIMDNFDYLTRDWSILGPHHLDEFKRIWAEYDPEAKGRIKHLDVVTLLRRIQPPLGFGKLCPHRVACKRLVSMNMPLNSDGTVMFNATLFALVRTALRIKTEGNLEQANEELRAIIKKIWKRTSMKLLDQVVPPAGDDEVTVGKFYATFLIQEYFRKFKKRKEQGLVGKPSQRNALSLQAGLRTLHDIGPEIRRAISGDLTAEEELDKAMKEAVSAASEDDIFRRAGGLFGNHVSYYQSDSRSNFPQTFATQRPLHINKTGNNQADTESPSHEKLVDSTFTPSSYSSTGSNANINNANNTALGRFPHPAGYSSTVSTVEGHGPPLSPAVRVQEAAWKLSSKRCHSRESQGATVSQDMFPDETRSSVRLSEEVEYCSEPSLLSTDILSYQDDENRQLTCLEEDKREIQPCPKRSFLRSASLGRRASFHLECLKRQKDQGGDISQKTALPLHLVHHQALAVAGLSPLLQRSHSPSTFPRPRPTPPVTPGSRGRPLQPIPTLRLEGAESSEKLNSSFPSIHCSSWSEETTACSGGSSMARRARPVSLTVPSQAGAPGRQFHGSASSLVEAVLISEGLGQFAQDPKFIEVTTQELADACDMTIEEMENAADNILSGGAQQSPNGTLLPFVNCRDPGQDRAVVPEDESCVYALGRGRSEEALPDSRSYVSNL
Chain of Cannabinoid receptor 1 (P21554 whole entry): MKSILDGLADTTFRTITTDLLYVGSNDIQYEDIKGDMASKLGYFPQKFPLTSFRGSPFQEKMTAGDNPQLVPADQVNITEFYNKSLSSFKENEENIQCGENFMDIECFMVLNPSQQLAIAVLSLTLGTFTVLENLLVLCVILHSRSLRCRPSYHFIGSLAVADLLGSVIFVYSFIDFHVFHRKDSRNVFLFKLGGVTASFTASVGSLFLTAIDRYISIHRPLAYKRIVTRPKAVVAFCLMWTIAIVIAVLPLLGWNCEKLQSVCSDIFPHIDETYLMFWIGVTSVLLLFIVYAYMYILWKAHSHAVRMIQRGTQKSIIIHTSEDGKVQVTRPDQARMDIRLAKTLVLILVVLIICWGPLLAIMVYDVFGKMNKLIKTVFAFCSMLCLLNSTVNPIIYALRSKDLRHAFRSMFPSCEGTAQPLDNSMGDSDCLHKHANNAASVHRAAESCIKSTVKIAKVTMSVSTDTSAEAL

On to `CN1CC(=O)N2[C@H](c3ccc4c(c3)OCO4)c3[nH]c4ccccc4c3C[C@@H]2C1=O`, for which the AC50 in test [1] was over 30 µM; in [2], over 10 µM; on Cannabinoid receptor 1 it was over 30 µM; in test [3], over 30 µM; in [4] it was over 30 µM; in test [5], over 10 µM. Also, the AC50 is over 30 µM in [6], over 10 µM in test [7] and over 10 µM in test [8].

Consider `CC(C)c1c(C(=O)Nc2ccccc2)c(-c2ccccc2)c(-c2ccc(F)cc2)n1CC[C@@H](O)C[C@@H](O)CC(=O)O` [ATORVASTATIN], for which the AC50 in test [1] is over 30 µM; in test [2], over 10 µM; at Cannabinoid receptor 1, over 30 µM; at Endothelin-1 receptor, over 30 µM; in test [4] it was over 30 µM; in test [5] it was over 10 µM. For the same compound, the AC50 in test [7] and in test [8] was over 10 µM each time.

Consider `CC(C)C(=O)OCC(=O)[C@@]12O[C@H](C3CCCCC3)O[C@@H]1C[C@H]1[C@@H]3CCC4=CC(=O)C=C[C@]4(C)[C@H]3[C@@H](O)C[C@@]12C` [CICLESONIDE], for which the AC50 in test [1] is over 10 µM; in test [2] it was over 10 µM; at Cannabinoid receptor 1, over 30 µM; in test [3] it was over 30 µM; in [4] it was over 30 µM; in test [5], over 10 µM. Moreover, the AC50 in [6], in test [7] and in [8] was over 10 µM throughout.

As for `CN1C(=O)CC(=O)N(c2ccccc2)c2cc(Cl)ccc21` [CLOBAZAM], the AC50 in test [1] is over 10 µM; in [2], over 10 µM; in test [3], over 30 µM; in [4], over 30 µM; in test [5], over 10 µM; in test [6], over 10 µM. Further, the AC50 in test [7] and in [8] was over 10 µM each time.

Regarding `C#CC1(OC(N)=O)CCCCC1` [ETHINAMATE], the AC50 in test [1] was over 10 µM; in [2], over 10 µM; in test [3], over 30 µM; in test [4] it was over 30 µM; in test [5] it was over 10 µM; in test [6], over 10 µM. The AC50 in test [7] and in test [8] was over 10 µM each time.

In the case of `CCNC(C)Cc1cccc(C(F)(F)F)c1` (configuration not stated) [FENFLURAMINE], the half-maximal activity concentration (AC50) in test [1] was over 30 µM; in test [2], over 10 µM; on Cannabinoid receptor 1, over 30 µM; on Endothelin-1 receptor it was over 30 µM; in test [7], over 10 µM; in [8] it was over 10 µM.

With `CN1CC[C@]23CCCC[C@H]2[C@H]1Cc1ccc(O)cc13` [LEVORPHANOL], the AC50 is over 10 µM in test [1]; over 10 µM in [2]; over 30 µM in [3]; over 30 µM in [4]; over 10 µM in test [5]; over 30 µM in test [6]. The AC50 in test [7] was over 10 µM; in [8], over 30 µM.

On to `CCN1CCC[C@H]1CNC(=O)c1cc(S(N)(=O)=O)ccc1OC` [LEVOSULPIRIDE], for which the AC50 in [1] is over 30 µM; in test [2], over 10 µM; at Cannabinoid receptor 1 it was over 30 µM; in test [4], over 30 µM; in test [5], over 30 µM; in test [6], over 30 µM. In addition, the AC50 in test [7] and in test [8] was over 10 µM each time.

Consider `COc1ccccc1OCC(O)COC(N)=O` (configuration not stated) [METHOCARBAMOL], for which the AC50 in test [1] is over 10 µM; in test [2], over 10 µM; in test [4], over 30 µM; in test [5], over 10 µM; in test [6], over 10 µM; in [7], over 10 µM. In addition, the AC50 in test [8] was over 10 µM.

On to `NC(=O)C[S+]([O-])C(c1ccccc1)c1ccccc1` (configuration not stated) [MODAFINIL], for which the AC50 was over 30 µM in test [1]; over 10 µM in test [2]; over 30 µM on Cannabinoid receptor 1; over 30 µM on Endothelin-1 receptor; over 30 µM in test [4]; over 10 µM in test [5]. Further, the AC50 in test [7] and in test [8] was over 10 µM in each case.

As to `CN1CCC2=C(C1)C(c1ccccc1)c1ccccc12` (configuration not stated) [PHENINDAMINE], the AC50 in test [1] was over 10 µM; in [2], over 10 µM; in [3], over 30 µM; in test [4], over 30 µM; in test [5], over 10 µM; in test [6], over 30 µM. The AC50 in [7] and in [8] was over 10 µM throughout.

In the case of `CC(Cc1ccccc1)NCCC(c1ccccc1)c1ccccc1` (configuration not stated) [PRENYLAMINE], the AC50 was over 30 µM in test [1]; over 10 µM in test [2]; over 10 µM in test [3]; over 30 µM in [4]; 6.8 µM in [5]; 4.7 µM in [6]. The AC50 was 4.28 µM in test [7] and over 10 µM in test [8].

Turning to `CCN(CC)CCOC(=O)c1ccc(N)cc1` [PROCAINE], the AC50 in test [1] is over 30 µM; in [2], over 10 µM; at Cannabinoid receptor 1, over 30 µM; in [4] it was over 30 µM; in [5], over 10 µM; in test [6] it was over 30 µM. Besides, the AC50 is over 10 µM in test [7] and 16 µM in [8].

Turning to `C#CCN(C)[C@H](C)Cc1ccccc1` [SELEGILINE], the AC50 in test [1] was over 10 µM; in [2], over 10 µM; at Cannabinoid receptor 1 it was over 30 µM; in test [4] it was over 30 µM; in [5] it was over 10 µM; in [6] it was over 10 µM. For the same compound, in [7], the AC50 is over 10 µM.

Consider `Cc1c(C(=O)Nc2ccc(N3C[C@@H](C)O[C@@H](C)C3)nc2)cccc1-c1ccc(OC(F)(F)F)cc1` [SONIDEGIB], for which the AC50 in test [1] is over 30 µM; in test [2], over 10 µM; at Endothelin-1 receptor, over 30 µM; in test [4] it was over 30 µM; in test [5] it was over 10 µM; in test [6], over 10 µM. In addition, the AC50 in [7] is over 10 µM.

`CN[C@@H]1[C@H](O)[C@H](NC)[C@H]2O[C@@]3(O)C(=O)C[C@@H](C)O[C@H]3O[C@@H]2[C@H]1O` [SPECTINOMYCIN]: the AC50 was over 10 µM in test [1]; over 10 µM in test [2]; over 30 µM in test [4]; over 10 µM in [5]; over 10 µM in test [6]; over 10 µM in test [7]. The compound also showed an AC50 in test [8] of over 10 µM.

On to `CC(=O)NS(=O)(=O)c1ccc(N)cc1` [SULFACETAMIDE], for which the AC50 in test [1] was over 10 µM; in test [2] it was over 10 µM; in test [3] it was over 30 µM; in [4], over 30 µM; in [5], over 10 µM; in [6], over 10 µM. Also, the AC50 in test [7] and in [8] was over 10 µM each time.
